From paper PMC5543107, “Inhibition of glutamate decarboxylase (GAD) by ethyl ketopentenoate (EKP) induces treatment-resistant epileptic seizures in zebrafish” (Scientific Reports, 2017)
“And” between values parts separate entries of the source, which are not always exact repeats. Equal entries are not always repeated.

Assays:
GAD = target: GAD; parameters: method as in PMID 29640; details: in vitro studies; read-out: Ki for GAD inhibition; cited from earlier work
zebrafish larvae = system: zebrafish larvae; parameters: method as in PMID 25845493; details: AG 200 mM − 300 mM; cited from earlier work
mice = system: mice; parameters: method as in PMID 29640; details: intracerebroventricular (icv) administration; cited from earlier work
[1] = system: EKP-treated zebrafish larvae; experiment: Effect of ASDs on EKP-induced locomotion activity; type: in vivo, Danio rerio; details: ASD at MTC, 18 h pre-incubation, 400 µM EKP
Protocol: Then, the larvae were treated with 400 µM EKP (or VHC) and the locomotion activity was monitored for 30 min (after 5 min of habituation) as described earlier. The average amount of movement per 5-min intervals was measured, quantified and normalized to the EKP control group for the entire 30-min tracking session or per 5-min interval.

[2] = system: EKP-treated zebrafish larvae; experiment: Effect of ASDs on EKP-induced epileptiform discharges (LFP); type: in vivo, Danio rerio; details: ASD at MTC, 18 h pre-incubation, 400 µM EKP, 10-min LFP recording
Protocol: Then, the larvae were treated with 400 µM EKP (or VHC), embedded in agarose, and the LFP recordings were performed as described earlier.

[3] = system: EKP-treated Tg(elavl3:GA) zebrafish larvae; experiment: Effect of ASDs on EKP-induced neuroluminescent events; type: in vivo, Danio rerio; details: ASD at MTC (ETS 250 µM, TGB 50 µM), 18 h, 400 µM EKP, 30-min recording
Protocol: Recordings were performed as described earlier.

c-fos expression = c-fos expression in larval heads by qPCR; type: in vivo, Danio rerio; details: 7 dpf larval heads, 15 min, 400 μM EKP or 20 mM PTZ (positive control)
Protocol: To measure the seizure-related changes in c-fos mRNA expression in the CNS, 12 larvae (7 dpf) were treated with either 20 mM PTZ, 400 μM EKP or VHC for 15 min and then rapidly decapitated. The heads were immediately processed for RNA isolation followed by cDNA synthesis as described for gad1b and gad2. qPCR analysis of c-fos mRNA expression using Bio-Rad 20x PrimePCR assays (c-fos assay ID: qDreCED0015103) was performed as described for gad1b and gad2, and normalized to the housekeeping gene ef1α and β-actin 1 (primers, Table S1).

7 dpf zebrafish larvae [4] = experiment: EKP-induced locomotor activity, automated video tracking; type: in vivo, Danio rerio
Protocol: Larvae (6 dpf) in 100 µl VHC were arrayed individually in a 96-well plate (tissue culture plate, flat bottom, Falcon, USA) and kept for 18 h in the dark at 28 °C. Prior to tracking the following day (7 dpf) 100 μl of VHC or EKP stock solution was added to each well to obtain a range of EKP concentrations (200 μM-800 μM). The plates were placed in an automated video tracking device (ZebraBox^TM apparatus; Viewpoint, Lyon, France) and 5 min later the locomotor behavior of the larvae was monitored for 2 h in the dark at 28 °C. Locomotor activity was quantified using ZebraLab™ software (Viewpoint, Lyon, France) and expressed in “actinteg” units per 5-min interval. The actinteg value is defined as the sum of all image pixel changes detected during the time window.
These seizures are defined as rapid corkscrew-like accompanied with entire body jerking and twitching, which are easily distinguished from other behavioral abnormalities (for description of phase 1 and 3 seizures, see results).

7 dpf zebrafish larvae [5] = experiment: Survival rate of larvae exposed to EKP; type: in vivo, Danio rerio; details: 400 μM EKP, first 30 min
Protocol: Larvae (7 dpf) were arrayed individually in a 96-well plate, exposed to EKP (200 μM-800 μM) or VHC (control) and immediately scored under a stereomicroscope for lethality every 5 min for 1 h.

7 dpf zebrafish larvae [6] = experiment: Local field potential (LFP) recordings in the optic tectum after EKP; type: in vivo, Danio rerio
Protocol: Larvae (6 dpf) in 100 µl VHC were arrayed individually in a 96-well plate and kept for 18 h in the dark at 28 °C. […] Next, the treated larva was embedded ventral side down in 2% low melting point agarose bathed in artificial cerebrospinal fluid (ACSF, 124 mM NaCl, 2 mM KCl, 2 mM MgSO4, 2 mM CaCl2, 1.25 mM KH2PO4, 26 mM NaHCO3, and 10 mM glucose). A blunt glass electrode (soda lime glass, Hilgenberg, Germany) was pulled with DMZ Universal Puller (Zeitz, Germany) to an opening of 15–20 microns, filled with ACSF and placed on the skin above the optic tectum. The recordings were performed using WinEDR (John Dempster, University of Strathclyde, UK). Differential signal was band pass filtered at 0.3–300 Hz and digitized at 2 kHz via a PCI-6251 interface (National Instruments, UK). LFP recordings started each time exactly 2 min after the removal of the larva from the EKP solution (or VHC) and were continued for 10 min at room temperature (24 °C).
EKP-induced events were considered as epileptiform activity when their signal exceeded three times the baseline and lasted for minimum 100 msec, as described previously. Electrophysiological recordings were analyzed in a blinded way using Clampfit 10.2 software (Molecular Devices, USA).

[7] = system: Tg(elavl3:GA) zebrafish larvae; experiment: Neuroluminescence recording of Tg(elavl3:eGFP-apoAequorin) larvae exposed to EKP; type: in vivo, Danio rerio; details: 400 µM EKP, 30-min recording, vs VHC
Protocol: Tg(elavl3:eGFP-apoAequorin) zebrafish larvae were visually screened for even GFP expression at 3 dpf. Selected larvae were incubated with VHC in 40 µM CLZN-h for 18–24 h in the dark at 28 °C[38]. Excess of CLZN-h was removed by washing larvae repeatedly in E3 medium afterwards. […] The recordings started each time exactly 5 min after EKP exposure and were continued for 30 min. Photons emitted were detected by a photon-counting tube (Type H3460–04, Hamamatsu Photonics, Japan) that was positioned about 2 cm above the larvae. Light impulses were discriminated, prescaled and counted with a PC-based 32-bit counter/timer board (PCI-6601, National Instruments Corporation, Austin, TX, USA). The number of impulses occurring during a 5-sec time interval was monitored with custom-built software. Analysis of the bioluminescence recordings was done in a blinded way.

[8] = 7 dpf larvae, 200-800 μM tested

C=CCC(N)C(=O)O (stereo not drawn) [AG, 2-amino-4-pentenoic acid]
Ki (GAD): ~50 mM
Outcome of seizures at high AG concentrations (zebrafish larvae): lethal

C=CC[C@@H](N)C(=O)O [D-AG]
ED50 for seizure induction (mice): 0.804 mg/kg

C=CCC(=O)C(=O)O [KPA, 2-keto-4-pentenoic acid]
Ki (GAD): 0.001 mM
ED50 for seizure induction (mice): 0.0145 mg/kg

C=CC[C@H](N)C(=O)O [L-AG]
ED50 for seizure induction (mice): 0.375 mg/kg

N#Cc1ccccc1-c1cc(-c2ccccn2)cn(-c2ccccc2)c1=O [PER, perampanel]
Effect on EKP-induced locomotion (whole 30-min recording) [1]: significantly prevented
Effect on number of epileptiform discharges generated by EKP [2]: significantly attenuated
Effect on EKP-induced neuronal activity (cumulative photons emitted) [3]: significantly diminished

O=C1NC(=O)C(c2ccccc2)(c2ccccc2)N1 [PHT, phenytoin]
Effect on number of epileptiform discharges generated by EKP [2]: did not show significant effects
Effect on EKP-induced neuronal activity (cumulative photons emitted) [3]: significantly diminished

C1CCc2nnnn2CC1 [PTZ, Pentylenetetrazol]
c-fos expression compared to VHC (c-fos expression): significantly increased

CCOC(=O)Nc1ccc(NCc2ccc(F)cc2)cc1N [RGB, retigabine]
Effect on number of epileptiform discharges generated by EKP [2]: did not show significant effects
Effect on EKP-induced neuronal activity (cumulative photons emitted) [3]: significantly diminished

CC1(C)O[C@@H]2[C@@H](CO[C@@]3(COS(N)(=O)=O)OC(C)(C)O[C@@H]23)O1 [TPM, topiramate]
Effect on number of epileptiform discharges generated by EKP [2]: significantly attenuated
Effect on EKP-induced neuronal activity (cumulative photons emitted) [3]: significantly diminished

NS(=O)(=O)Cc1noc2ccccc12 [ZSM, zonisamide]
Effect on number of epileptiform discharges generated by EKP [2]: significantly attenuated
Effect on EKP-induced neuronal activity (cumulative photons emitted) [3]: significantly diminished

ethyl ketopentenoate [EKP]
Locomotor activity (7 dpf zebrafish larvae [4]; 400 μM EKP, 7 dpf larvae, vs VHC): robust increase of locomotor activity
EKP concentrations at which a second phase (hyperactivity plateau) followed (7 dpf zebrafish larvae [4]; [8]): ≥ 300 µM
EKP concentrations with third phase (irreversible decline of total larval movement, paralysis, death) (7 dpf zebrafish larvae [4]; [8]): 300 to 800 µM
Fold lower concentration inducing hyperactivity compared with AG (7 dpf zebrafish larvae [4]; zebrafish larvae, AG data ref 13): 100 fold
Larval death (7 dpf zebrafish larvae [5]): without inducing any larval death
Mean frequency of epileptiform events (7 dpf zebrafish larvae [6]; 400 μM EKP 15 min, optic tectum, 10-min recording, n = 58): 55.76 ± 6.87 events/10 min and 55.76 ± 6.872 events/10 min
Larvae with multiple epileptiform events (7 dpf zebrafish larvae [6]; 400 μM EKP, number of larvae out of total): 58/58
c-fos expression compared to VHC (c-fos expression): significantly increased
Averaged aequorin light signal [7]: increased
